Values of other authors in patent publication US20100092557A1 (priority 2006, published 2010).

Settings: general statement in the background; species and matrix not given

Structure (SMILES)	half-life [h]
O=C(O)Cc1ccccc1Nc1c(Cl)cccc1Cl [diclofenac]	1.1
O=C(O)c1ccccc1Nc1cccc(C(F)(F)F)c1 [flufenamic acid]	1.4

Continued, values first:

half-life [h]	Structure (SMILES)
68	CCCCC1C(=O)N(c2ccccc2)N(c2ccccc2)C1=O [phenylbutazone]
3.0	CC(C(=O)O)c1ccc(C(=O)c2ccccc2)s1 (stereo not drawn) [tiaprofenic acid]
57	CN1C(C(=O)Nc2ccccn2)=C(O)c2ccccc2S1(=O)=O [piroxicam]
4.6	COc1ccc2c(c1)c(CC(=O)O)c(C)n2C(=O)c1ccc(Cl)cc1 [indomethacin]
